Experimental findings from article PMC6750098, “Mechanism of DNA Lesion Homing and Recognition by the Uvr Nucleotide Excision Repair System” (Research, 2019) are described below.

The target in test [1] is T1, UvrB (Δ594-658, domains 1a-3) ([Bacillus] caldotenax, UniProt P56981, C145S/C211S/T251C/C303S).
T1 construct: residues 1-593 (domain 4 deleted, Δ594-658), all native Cys to Ser, His-tag cleaved with TEV protease, expressed in E. coli BL21(DE3) pLysS, disulfide-crosslinked to duplex DNA
The experiment in a line: X-ray crystal structure (UvrB-dsDNA-ADP·Pi). Particulars: crystals grown with 2 mM ATP and 5 mM MgCl2, pH 6.5, 20 °C; protein disulfide-crosslinked to 20-mer dsDNA; ATP binding site; 2.6 Å.

The target in test [2] is T1, UvrB (Δ594-658, domains 1a-3). The experiment in a line: ATP hydrolysis in crystallo, seen in crystal structure. The class given is biochemical. Conditions: 2 mM ATP, 5 mM MgCl2, pH 6.5, 20 °C; protein disulfide-crosslinked to 20-mer dsDNA.

T1 sequence (P56981 1-593 C145S/C211S/T251C/C303S): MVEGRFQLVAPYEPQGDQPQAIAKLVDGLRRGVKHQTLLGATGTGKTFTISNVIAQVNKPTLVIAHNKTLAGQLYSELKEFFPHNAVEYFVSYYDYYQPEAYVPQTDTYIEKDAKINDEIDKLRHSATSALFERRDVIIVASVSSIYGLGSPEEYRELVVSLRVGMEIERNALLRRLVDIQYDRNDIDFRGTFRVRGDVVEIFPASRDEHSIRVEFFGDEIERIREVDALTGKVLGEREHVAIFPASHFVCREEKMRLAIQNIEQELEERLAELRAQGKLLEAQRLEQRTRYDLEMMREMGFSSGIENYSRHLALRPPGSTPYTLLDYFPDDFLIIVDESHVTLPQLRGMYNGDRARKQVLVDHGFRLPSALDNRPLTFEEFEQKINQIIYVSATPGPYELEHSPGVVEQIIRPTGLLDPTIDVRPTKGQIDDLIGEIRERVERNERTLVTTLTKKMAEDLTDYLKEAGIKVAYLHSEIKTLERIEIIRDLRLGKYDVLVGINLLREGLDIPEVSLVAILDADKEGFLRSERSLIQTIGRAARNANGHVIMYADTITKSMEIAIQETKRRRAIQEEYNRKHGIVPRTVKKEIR

As to `Nc1ncnc2c1ncn2[C@@H]1O[C@H](COP(=O)(O)OP(=O)(O)O)[C@@H](O)[C@H]1O` [ADP], the “X-ray crystal structure (UvrB-dsDNA-ADP.Pi)” value in test [1] is on record as “the electron density corresponds to ADP plus inorganic phosphate”. `Nc1ncnc2c1ncn2[C@@H]1O[C@H](COP(=O)(O)OP(=O)(O)OP(=O)(O)O)[C@@H](O)[C@H]1O` [ATP]: in test [2], the “ATP hydrolysis in crystallo, seen in crystal structure” value is “hence we conclude that the ATPase site retains activity in our crosslinked complex”.
